Assay results reported in patent publication US20070078111A1, “LPA2 receptor agonist inhibitors of CFTR” (priority 2005, published 2007).

What was measured:
LPA2 receptor = LPA2 receptor (Homo sapiens, UniProt Q9HBW0); experiment: LPA2 receptor agonist activity (EC50, Emax); assay type: cell-based; conditions: for LPA2 (Emax): value in parentheses
CFTR = experiment: Iodide efflux measurements in Calu-3 cells; assay type: cell-based, human; conditions: for CFTR activity, peak iodide efflux in response to adenosine: adenosine as CFTR agonist, FIG. 2C
NHERF2 = target: T1, NHERF2 (Homo sapiens, UniProt Q15599); experiment: NHERF2 binding to LPA2 in the presence of LPA2-specific peptide; conditions: FIG. 4H
T1 construct: GST
T1 sequence (Q15599 whole entry): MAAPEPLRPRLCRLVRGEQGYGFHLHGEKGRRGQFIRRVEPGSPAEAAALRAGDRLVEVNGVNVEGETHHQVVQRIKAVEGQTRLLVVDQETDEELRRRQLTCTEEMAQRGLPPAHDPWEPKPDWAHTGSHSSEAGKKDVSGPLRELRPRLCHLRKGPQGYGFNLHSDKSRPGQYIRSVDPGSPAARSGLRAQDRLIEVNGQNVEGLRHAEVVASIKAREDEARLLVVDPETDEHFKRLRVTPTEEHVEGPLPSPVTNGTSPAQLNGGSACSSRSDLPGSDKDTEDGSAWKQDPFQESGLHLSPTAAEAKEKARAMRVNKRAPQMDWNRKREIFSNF
Experimental: This assay (34) was performed using maltose binding protein (MBP)-CFTR-C tail fusion protein (1 μM) immobilized on amylose beads (20 μl) and incubated with GST-NHERF2. This step, which is called pairwise binding, was done in 200 μl of lysis buffer (PBS-0.2% Triton-X 100+protease inhibitors) and mixed at 22° C. for 2 h. The complex was washed once with the same buffer and allowed to bind Flag-tagged LPA2 from lysates of BHK cells expressing the receptor. The binding was done at 4° C. for 3 h with constant mixing. The complex was washed with lysis buffer, eluted with sample buffer, and analyzed by immunoblotting using anti-Flag monoclonal antibody.

CFTR Cl- channel [1] = experiment: Short-circuit current (Isc) in polarized Calu-3 monolayers; assay type: cell-based, human
Experimental: (§1) Calu-3 and HT29-CL19A polarized cell monolayers were grown to confluency on Costar Transwell permeable supports (filter area is 0.33 cm^2). Filters were mounted in an Ussing chamber, and short-circuit currents (Isc) mediated through CFTR Cl^− channel were carried out as described previously (31). Epithelia were bathed in Ringer's solution (mM) (serosal/basolateral: 140 NaCl^−, 5 KCl, 0.36 K2HPO4, 0.44 KH2PO4, 1.3 CaCl2, 0.5 MgCk2, 4.2 NaHCO3, 10 Hepes, 10 glucose, pH 7.2, [Cl^−]=149), and low Cl-Ringer's solution (mM) (luminal/apical: 133.3 Na-gluconate, 5 K-gluconate, 2.5 NaCl, 0.36 K2HPO4, 0.44 KH2PO4, 5.7 CaCl2, 0.5 MgCl2, 4.2 NaHCO3, 10 Hepes, 10 mannitol, pH 7.2, [Cl^−]=14.8) at 37° C., gassed with 95% O2 and 5%) […] CO2. LPA (20:4) was added into both the luminal (apical) side and serosal (basolateral) side of the cell monolayers for 30 min before adenosine (ADO) was added into the luminal/apical side. […]

CFTR Cl- channel [2] = experiment: Short-circuit current (Isc) in isolated mouse intestine; conditions: isolated mouse intestine pretreated with LPA (20:4); dose-dependent; FIG. 2G, 2H
Experimental: as §1

CFTR Cl- channel [3] = experiment: Short-circuit current (Isc) in polarized HT29-CL19A monolayers; assay type: cell-based, human; conditions: HT29 cells; LPA (20:4) pretreatment 30 min; FIG. 2E
Experimental: as §1

[4] = test system: CTX-induced Cl- secretion; assay type: in vivo, C57BL/6 mice; conditions: 6 hours
[5] = test system: CTX-induced intestinal fluid secretion; assay type: in vivo, CD1 mice

Chain of LPA2 receptor (Q9HBW0 whole entry): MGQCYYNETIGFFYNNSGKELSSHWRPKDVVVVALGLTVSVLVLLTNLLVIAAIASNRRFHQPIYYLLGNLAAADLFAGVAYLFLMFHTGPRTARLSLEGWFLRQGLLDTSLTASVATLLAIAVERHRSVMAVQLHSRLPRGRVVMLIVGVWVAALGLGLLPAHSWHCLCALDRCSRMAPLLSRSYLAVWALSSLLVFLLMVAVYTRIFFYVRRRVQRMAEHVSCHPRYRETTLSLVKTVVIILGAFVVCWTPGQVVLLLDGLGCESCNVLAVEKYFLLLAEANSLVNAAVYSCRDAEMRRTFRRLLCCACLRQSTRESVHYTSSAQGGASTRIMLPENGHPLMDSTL

CCCCCCCCCCOP(=O)(O)O [Phosphoric acid monodecyl]
EC50 (LPA2 receptor; Table 1): 1.8 µM | LPA2 (Emax) (LPA2 receptor; Table 1): 82

CCCCCCCCCCOP(O)(O)=S [Thiophosphoric acid O- decyl ester]
EC50 (LPA2 receptor; Table 1): 4.57 µM | LPA2 (Emax) (LPA2 receptor; Table 1): 100

CC/C=C\CCCCCCCCOP(O)(O)=S [drawing 10, Thiophosphoric acid O-dodec-9-enyl ester]
binding to the LPA2 receptor and thereby inhibiting CFTR activation (LPA2 receptor): particularly effective | EC50 (LPA2 receptor; Table 1): 0.677 µM | LPA2 (Emax) (LPA2 receptor; Table 1): 100

CCCCCCCC=CCCCCCCCC[C@@H]1OC[C@H](COP([O-])(O)=S)O1.[K+] [(2R,4R) Mono potassium thiophosphoric acid O-(2-heptadec-9-enyl-(1,3)-dioxolan-4-ylmethyl) ester]
EC50 (LPA2 receptor; Table 2): 1.09 µM | LPA2 (Emax) (LPA2 receptor; Table 2): 85

pertussis toxin [PTX]
reversal of LPA-dependent inhibition of CFTR function (iodide efflux) (CFTR; Calu-3 cells pretreated with PTX 100 or 200 ng/ml for 24 h): reversed LPA-dependent inhibition of CFTR function in a dose-dependent fashion

CCCCCCCCCCCCOP(O)(O)=S [Thiophosphoric acid O- dodecyl ester]
binding to the LPA2 receptor and thereby inhibiting CFTR activation (LPA2 receptor): particularly effective | EC50 (LPA2 receptor; Table 1): 1 µM | LPA2 (Emax) (LPA2 receptor; Table 1): 100

CCCCCCCC/C=C\CCCCCCCCOP(O)(O)=S [drawing 12, Thiophosphoric acid O-octadec-9-enyl ester]
binding to the LPA2 receptor and thereby inhibiting CFTR activation (LPA2 receptor): particularly effective | EC50 (LPA2 receptor; Table 1): 0.244 µM | LPA2 (Emax) (LPA2 receptor; Table 1): 175

LPA2-specific peptide: peptide containing the PDZ motif of LPA2 (last 11 amino acids; a.a. 341 to 351, ENGHPLMDSTL)
competition with LPA2 for binding to NHERF2 (NHERF2): could compete with LPA2 for binding to NHERF2 in a dose-dependent manner | reversal of LPA-elicited inhibition on CFTR-dependent Cl- currents (Isc) (CFTR Cl- channel [1]; peptide delivered with Chariot, 25 μM LPA (20:4) 30 min, adenosine 0-20 μM, FIG. 4F): significantly reversed

CCCC/C=C\CCCCCCCCOP(=O)(O)O [Phosphoric acid monotetradec-9-enyl ester]
EC50 (LPA2 receptor; Table 1): 0.397 µM | LPA2 (Emax) (LPA2 receptor; Table 1): 58

CCCCCCCC(=O)OC[C@H](COP(O)(O)=S)OC(=O)CCCCCCC [(R)-Octanoic acid 1-octanoyloxymethyl-2-thiophosphonooxy-ethyl ester]
LPA2 (Emax) (LPA2 receptor; Table 1): 58

CCCC/C=C\CCCCCCCCOP(O)(O)=S [Thiophosphoric acid O-tetradec-9-enyl ester]
binding to the LPA2 receptor and thereby inhibiting CFTR activation (LPA2 receptor): particularly effective | EC50 (LPA2 receptor; Table 1): 0.48 µM | LPA2 (Emax) (LPA2 receptor; Table 1): 150

CCCCCCCC=CCCCCCCCC[C@@H]1OC[C@H](COP(=O)([O-])O)O1.[K+] [(2R,4R) Mono potassium phosphoric acid O-(2-heptadec-9-enyl-(1,3)-dioxolan-4-ylmethyl) ester]
EC50 (LPA2 receptor; Table 2): 1.71 µM | LPA2 (Emax) (LPA2 receptor; Table 2): 42

phosphatidic acid [PA]
CFTR activity, peak iodide efflux in response to adenosine (CFTR; Calu-3 cells): did not show any significant effect

CC/C=C\CCCCCCCCOP(=O)(O)O [Phosphoric acid monododec-9-enyl ester]
EC50 (LPA2 receptor; Table 1): 0.717 µM | LPA2 (Emax) (LPA2 receptor; Table 1): 78

lysophosphatidic acid [LPA]
Isc in response to cpt-cAMP stimulation (CFTR Cl- channel [2]): inhibited | CFTR-dependent Cl- currents (Isc) in response to adenosine (CFTR Cl- channel [3]): significantly inhibited | CFTR-dependent Cl- currents (Isc) in response to adenosine (CFTR Cl- channel [1]; Calu-3 cells, LPA pretreatment 30 min, FIG. 2F): significantly inhibited | ratio of intestinal weight before to after luminal fluid removal [4]: statistically significant reduction | effect of LPA alone on CFTR channel function (iodide efflux) (CFTR; Calu-3 cells, LPA alone, no cpt-cAMP): had no effect | CFTR activity, peak iodide efflux in response to adenosine (CFTR; Calu-3 cells): dose-dependent inhibition | response of Calu-3 cells to cpt-cAMP stimulation (iodide efflux) (CFTR; LPA pretreatment, FIG. 2A: LPA 18:1 (20 μM), cpt-cAMP 200 μM): reduced the response | CTX-elicited CFTR-dependent intestinal fluid secretion (ileal loop weight) ([5]; 6 h): significantly reducing fluid accumulation to the level of PBS control loops | fluid accumulation in toxin-treated intestinal loops ([5]; mouse, in vivo): efficiently reduced the fluid accumulation

C=CCCCCCCCCOP(=O)(O)O [Phosphoric acid monodec-9-enyl ester]
EC50 (LPA2 receptor; Table 1): 3.8 µM | LPA2 (Emax) (LPA2 receptor; Table 1): 100

CC=CCC=CCC=CCCCCCCCCC1OCC(COP(=O)(O)O)O1.[K] (stereo not drawn) [Mono potassium phosphoric acid O-(2-heptadec-9,12,15-trienyl-(1,3)-dioxolan-4-ylmethyl) ester]
EC50 (LPA2 receptor; Table 2): 1.71 µM | LPA2 (Emax) (LPA2 receptor; Table 2): 51

CCCCCCCC/C=C\CCCCCCCC(=O)OC[C@@H](O)COP(=O)(O)O [LPA 18:1]
rank order of inhibition of peak iodide efflux in response to adenosine (CFTR; Calu-3 cells, […], FIG. 2D): LPA 20:4>LPA 18:2>LPA 18:1

CCCCCCCCCCCCOP(=O)(O)O [Phosphoric acid monododecyl ester]
EC50 (LPA2 receptor; Table 1): 3.1 µM | LPA2 (Emax) (LPA2 receptor; Table 1): 50

CC/C=C\CCCCCCCCCCOP(=O)(O)O [Phosphoric acid monotetradec-11-enyl ester]
EC50 (LPA2 receptor; Table 1): 4.1 µM | LPA2 (Emax) (LPA2 receptor; Table 1): 75

CCCCCCCC=CCCCCCCCC[C@H]1OC[C@@H](COP([O-])(O)=S)O1.[K+] [(2S,4S) Mono potassium thiophosphoric acid O-(2-heptadec-9-enyl-(1,3)-dioxolan-4-ylmethyl) ester]
EC50 (LPA2 receptor; Table 2): 1.32 µM | LPA2 (Emax) (LPA2 receptor; Table 2): 87

CCCCCCCC/C=C\CCCCCCCCOP(O)(O)=S [FAP 18:1d9, fatty alcohol thiophosphate 18:1d9]
intestinal fluid accumulation [4]: significantly reduced | ratio of intestinal weight before to after luminal fluid removal [4]: statistically significant reduction

CCCCCCCC=CCCCCCCCC[C@H]1OC[C@H](COP([O-])(O)=S)O1.[K+] [(2S,4R) Mono potassium thiophosphoric acid O-(2-heptadec-9-enyl-(1,3)-dioxolan-4-ylmethyl) ester]
EC50 (LPA2 receptor; Table 2): 1.3 µM | LPA2 (Emax) (LPA2 receptor; Table 2): 77

CCCCCCCCCCCCCCOP(O)(O)=S [Thiophosphoric acid O- tetradecyl ester]
binding to the LPA2 receptor and thereby inhibiting CFTR activation (LPA2 receptor): particularly effective | EC50 (LPA2 receptor; Table 1): 2.5 µM | LPA2 (Emax) (LPA2 receptor; Table 1): 100

CCCCCCCC=CCCCCCCCC[C@@H]1OC[C@@H](COP([O-])(O)=S)O1.[K+] [(2R,4S) Mono potassium thiophosphoric acid O-(2-heptadec-9-enyl-(1,3)-dioxolan-4-ylmethyl) ester]
EC50 (LPA2 receptor; Table 2): 1.54 µM | LPA2 (Emax) (LPA2 receptor; Table 2): 72

CCCCCCCCOC[C@H](COP(O)(O)=S)OCCCCCCCC [(R)-Thiophosphoric acid O-(2,3-bis-octyloxy-propyl) ester]
EC50 (LPA2 receptor; Table 1): 5.72 µM | LPA2 (Emax) (LPA2 receptor; Table 1): 27

CCCCCCCC(=O)OC[C@@H](COP(O)(O)=S)OC(=O)CCCCCCC [(S)-Octanoic acid 1-octanoyloxymethyl-2-thiophosphonooxy-ethyl ester]
LPA2 (Emax) (LPA2 receptor; Table 1): 17

CCCCCCCC=CCCCCCCCCC1OCC(COP(O)(O)=S)O1.[K] (stereo not drawn) [Mono potassium thiophosphoric acid O-(2-heptadec-9-enyl-(1,3)-dioxolan-4-ylmethyl) ester]
EC50 (LPA2 receptor; Table 2): 1.17 µM | LPA2 (Emax) (LPA2 receptor; Table 2): 87
